Measured values published in paper PMC5454942, “The Potential of Triterpenoids from Loquat Leaves (Eriobotrya japonica) for Prevention and Treatment of Skin Disorder” (International Journal of Molecular Sciences, 2017).
≈ marks a conversion by molar mass, not a printed value. Where “and” joins values, the source holds several entries; their conditions need not be identical. Identical values can stand only once. Like-named read-outs stand apart in the source and are kept apart here.

Experiments:
[1] = Cell viability of B16 melanoma cells (MTT); conditions: mouse
B16 melanoma cells [2] = assay: Cell viability of B16 melanoma cells (MTT); conditions: for Inhibition rate (100% − cell viability): B16 cells
[3] = Cell viability of RBL-2H3 cells (parallel MTT); format: cell-based, rat; conditions: rat
Outline: (§1)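 IgE-sensitized RBL-2H3 cells (0.5 μg/mL anti-DNP IgE, 24 h) treated with sample 30 min in Tyrode buffer, then challenged 1 h with 50 μg/mL DNP-BSA. Released β-hexosaminidase measured with 2 mM p-nitrophenyl-N-acetyl-β-glucosaminide, 3 h, A405; viability by parallel MTT.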

NHDF-Ad cells = assay: Hyaluronic acid production assay (ELISA, with MTT); format: cell-based, human; conditions: 10 μg/mL, fold of control
Description: NHDF-Ad cells were seeded on 96-well plates (5 × 10^3 cells/well) for 24 h before the treatment. The medium was replaced with a mixture of 1 μL of sample solution (DMSO < 0.5% per well) and 99 μL of DMEM supplemented with 0.5% FBS. After 72 h cultivation, the amount of hyaluronic acid in the medium was measured using a QnE Hyaluronic acid ELISA kit (Biotech Trading Partners, Encinitas, CA, USA). The amount of hyaluronic acid production was quantitatively calculated from the standard curve. Cell viability was measured by the MTT method, and ascorbic acid was used as a positive control.

RBL-2H3 cells [4] = assay: β-hexosaminidase release from IgE-stimulated RBL-2H3 mast cells; format: cell-based, rat
Outline: as §1

B16 melanoma cells [5] = assay: Anti-melanogenesis assay (melanin content); format: cell-based, mouse; conditions: for inhibition at 1 µg/mL: 1 μg/ml; for inhibition at 1 µg/mL / inhibition at 2.5 µg/mL / inhibition at 5 µg/mL / inhibition at 10 µg/mL / inhibition at 20 µg/mL / Inhibition rate (100% − melanin synthesis): B16 cells; for inhibition at 1 µg/mL / inhibition at 2.5 µg/mL / inhibition at 5 µg/mL / inhibition at 10 µg/mL / inhibition at 20 µg/mL: read-out: Inhibition rate (100% − melanin synthesis); for inhibition at 10 µg/mL: 10 μg/ml
Outline: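 B16 cells treated with samples in DMSO (<0.2%) for 48 h, then re-dosed in fresh medium for a further 24 h; arbutin served as positive control. Melanin content read at 405 nm and viability by MTT at 570 nm.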

Propionibacterium acnes = assay: Anti-bacterial assay (growth inhibition, MIC/MBC by broth microdilution); format: cell-based; conditions: for inhibition at 100 µg/mL: read-out: Inhibition Rate (P. acnes growth); for activity against P. acnes (in words): at their maximum solubility
Outline: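 P. acnes NBRC 107605 grown in GAM broth 30 h at 37 °C, then used at 10^5 CFU/mL. Compounds in DMSO incubated with bacteria 30 h at 37 °C; growth read at 630 nm. MIC and MBC by broth microdilution.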

[6] = tested on: inflammation induced by 12-O-tetradecanoylphorbol-13-acetate (TPA); design: method as in PMID 16204964, PMID 14745168; conditions: mice; cited from earlier work
[7] = tested on: Epstein–Barr virus early antigen; design: method as in PMID 16204964, PMID 14745168; conditions: cited from earlier work
mushroom tyrosinase = assay: Tyrosinase inhibition assay; format: biochemical
Description: Tyrosinase inhibition activity was evaluated by using L-tyrosine and L-DOPA as substrates, as described. Briefly, 333 μL of 2.5 mM L-tyrosine or L-DOPA solution (Sigma-Aldrich) was mixed with 600 μL of 0.1 M phosphate buffer (pH 6.8) and incubated at 25 °C. Then, 33 μL of the sample solution (dissolved in DMSO in various concentrations) and 33 μL of 1380 units/mL mushroom tyrosinase (Sigma-Aldrich) were added to the mixture. The optical density was measured at 475 nm up to the appropriate time. Kojic acid (Sigma-Aldrich) was used as the positive control; the final concentration is 3.3 μg/mL.

NHDF cells = assay: Skin type I collagen synthesis promoting assay (ELISA, with MTT); format: cell-based, human; conditions: fold of control
RBL-2H3 cells [8] = assay: Cell viability of RBL-2H3 cells (parallel MTT); format: cell-based, rat; conditions: 25 μg/ml, RBL-2H3 cells
Outline: as §1

[9] = 25 μg/ml, RBL-2H3 cells, read-out: Cell viability
[10] = Rattus norvegicus, RBL-2H3, 25 μg/mL, read-out: Inhibition Rate (β-hexosaminidase release)
[11] = Mus musculus, B16 melanoma cells, read-out: IC50 (melanin synthesis)
[12] = Mus musculus, B16 melanoma cells, read-out: IC50 melanin
[13] = Cutibacterium acnes, P. acnes, broth microdilution, read-out: MBC
[14] = Cutibacterium acnes, P. acnes, broth microdilution, read-out: MIC
[15] = Cutibacterium acnes, concentration 100 μg/mL
[16] = Rattus norvegicus, RBL-2H3, read-out: Inhibition Rate (β-hexosaminidase release)

| Structure (SMILES) | Inhibition rate (100% − cell viability) (B16 melanoma cells [2]; 1 μg/ml) [%] | Inhibition rate (100% − cell viability) (B16 melanoma cells [2]; 2.5 μg/ml) [%] | Inhibition rate (100% − cell viability) (B16 melanoma cells [2]; 5 μg/ml) [%] | Inhibition rate (100% − cell viability) (B16 melanoma cells [2]; 10 μg/ml) [%] | Inhibition rate (100% − cell viability) (B16 melanoma cells [2]; 20 μg/ml) [%] | viability at 25 μg/ml [3, 9] [%] | inhibition at 25 µg/mL (RBL-2H3 cells [4]; [10]) [%] | S.I (selectivity index, CC50 value/IC50 value) (B16 melanoma cells [5]; B16 melanoma cells) | inhibition at 1 µg/mL (B16 melanoma cells [5]; Mus musculus) [%] | inhibition at 2.5 µg/mL (B16 melanoma cells [5]; Mus musculus, 2.5 μg/ml) [%] | inhibition at 5 µg/mL (B16 melanoma cells [5]; Mus musculus, 5 μg/ml) [%] | inhibition at 10 µg/mL (B16 melanoma cells [5]; Mus musculus) [%] | IC50 (B16 melanoma cells [5]; [11]) [µM] | IC50 (B16 melanoma cells [5]; [12]) [µg/mL] | MBC (Propionibacterium acnes; [13]) [µg/mL] | MIC (Propionibacterium acnes; [14]) [µg/mL] | inhibition at 100 µg/mL (Propionibacterium acnes; [15]) [%] | activity against P. acnes (in words) (Propionibacterium acnes) | inhibitory activity against TPA-induced inflammation (in words) [6] | inhibitory activity against TPA-induced Epstein–Barr virus early antigen activation (in words) [7] | also measured |
| --- | --- | --- | --- | --- | --- | --- | --- | --- | --- | --- | --- | --- | --- | --- | --- | --- | --- | --- | --- | --- | --- |
| C[C@H]1[C@H](C)CC[C@]2(C(=O)O)CC[C@]3(C)C(=CC[C@@H]4[C@@]5(C)C[C@@H](O)[C@H](O)C(C)(C)[C@@H]5CC[C@]43C)[C@H]12 [Compound 8, Corosolic acid] | 0.0 ± 3.5 | 0.0 ± 3.8 | 0.3 ± 4.0 | 39.3 ± 4.7 | 94.8± 0.3 | 80.4 ± 1.6 | 36.1 ± 6.7 | 1.4 | 3.4 ± 5.1 | 0.5 ± 4.1 | 17.4 ± 5.5 | 59.8 ± 1.9 | 18.7 | 8.8 | 100 (≈ 212 µM) | 50 (≈ 106 µM) | 105.9 ± 0.4 | active | – | – | CC50 at 72 h ([1]; B16 melanoma cells): 12.2 µg/mL and 25.8 µM; HA/CV value (hyaluronic acid %/cell viability %) (NHDF-Ad cells): 5.9 |
| C[C@@H]1CC[C@]2(C(=O)O)CC[C@]3(C)C(=CC[C@@H]4[C@@]5(C)C[C@@H](O)[C@@H](O)C(C)(C)[C@@H]5CC[C@]43C)[C@@H]2[C@]1(C)O [Compound 12, euscaphic acid] | – | 0.0 ± 6.9 | 0.0 ± 6.6 | 44.9 ± 2.7 | 91.1 ± 1.0 | – | 74.5 ± 1.3 | 0.7 | – | 0 | 0 | 35 ± 3.6 | 34 | 16.6 | 50 (≈ 102 µM) | 50 (≈ 102 µM) | 98.5 ± 1.3 | active | significant inhibitory activity | significant inhibitory activity | CC50 at 72 h [1]: 12.5 µg/mL and 25.6 µM; viability at 25 μg/ml [3]: 93.9 ± 7.3%; inhibition at 1 µg/mL (RBL-2H3 cells [4]; Rattus norvegicus, RBL-2H3, 1 μg/mL, read-out: Inhibition Rate (β-hexosaminidase release)): 10.4 ± 10.8%; inhibition at 5 µg/mL (RBL-2H3 cells [4]; Rattus norvegicus, RBL-2H3, 5 μg/mL, read-out: Inhibition Rate (β-hexosaminidase release)): 37.7 ± 3.9%; inhibition at 12.5 µg/mL (RBL-2H3 cells [4]; Rattus norvegicus, RBL-2H3, 12.5 μg/mL, read-out: Inhibition Rate (β-hexosaminidase release)): 67 ± 1.8%; IC50 (RBL-2H3 cells [4]; Rattus norvegicus, IgE-stimulated RBL-2H3 cells, read-out: IC50 (β-hexosaminidase release)): 15.8 µM; inhibition at 20 µg/mL (B16 melanoma cells [5]; Mus musculus, 20 μg/ml): 58.8%; MIC (Propionibacterium acnes; P. acnes, broth microdilution): 50/50 μg/mL |
| CC1(C)CC[C@]2(C(=O)O)CC[C@]3(C)C(=CC[C@@H]4[C@@]5(C)C[C@@H](O)[C@H](O)C(C)(C)[C@@H]5CC[C@]43C)[C@@H]2C1 [Compound 7, Maslinic acid] | 2.5 ± 2.2 | 3.2 ± 4.8 | 42.2 ± 4.0 | 44.3 ± 6.4 | 76.5± 3.0 | 84.4 | – | > 1.0 | 2.8 ± 1.1 | 12.2 ± 1.9 | 47.5 ± 0.4 | 54.5 ± 3 | 18.5 | 8.7 | – | – | – | active | significant inhibitory activity | significant inhibitory activity | inhibitory effect on tyrosinase (in words) (mushroom tyrosinase; L-DOPA as substrate): no inhibitory effect; inhibitory activity on tyrosinase (in words) (mushroom tyrosinase; L-tyrosine as substrate, relatively high concentrations): moderate inhibitory activity; CC50 at 72 h [1]: 13.8 µg/mL and 29.3 µM; IC50 (RBL-2H3 cells [4]; Rattus norvegicus, RBL-2H3, read-out: IC50 (β-hexosaminidase release), IgE-stimulated RBL-2H3 cells): 22.9 µM; inhibition at 5 µg/mL (RBL-2H3 cells [4]; [16]): 9.5 ± 6.6%; inhibition at 12.5 µg/mL (RBL-2H3 cells [4]; [16]): 58.2 ± 3%; inhibition at 25 µg/mL (RBL-2H3 cells [4]; [16]): 66 ± 2.6%; IC50 (RBL-2H3 cells [4]; read-out: IC50 (β-hexosaminidase release), IgE-stimulated RBL-2H3 cells): 22.8 µM; inhibition at 20 µg/mL (B16 melanoma cells [5]; Mus musculus, 20 μg/ml): 65.1 ± 0.4%; MBC (Propionibacterium acnes; Cutibacterium acnes): 150 µg/mL (≈ 317 µM); MIC (Propionibacterium acnes; Cutibacterium acnes): 50 µg/mL (≈ 106 µM); inhibition at 100 µg/mL (Propionibacterium acnes; Cutibacterium acnes): 104 ± 3.1% |
| C[C@H]1[C@H](C)CC[C@]2(C(=O)O)CC[C@]3(C)C(=CC[C@@H]4[C@@]5(C)C[C@@H](O)[C@@H](O)C(C)(C)[C@@H]5CC[C@]43C)[C@H]12 [Compound 9, 3-epicorosolic acid] | – | 0.0 ± 10.3 | 0.0 ± 11.8 | 3.4 ± 4.1 | 14.8 ± 4.1 | – | – | – | – | – | – | – | – | – | – | – | – | – | significant inhibitory activity | significant inhibitory activity | CP/CV value (collagen production %/cell viability %) (NHDF cells; 1 μg/mL): 1.2; CP/CV value (collagen production %/cell viability %) (NHDF cells; 5 μg/mL): 1.3; CC50 cell viability (B16 melanoma cells [2]; B16 melanoma cells, MTT): > 20.0 µg/mL; CC50 (B16 melanoma cells [2]; read-out: CC50 (cell viability), B16 melanoma cells, MTT): > 42.3 µM; Cell viability (RBL-2H3 cells [8]): 98.0 ± 7.7%; Inhibition Rate (β-hexosaminidase release) (RBL-2H3 cells [4]; 1 μg/mL): 8.9 ± 5.2%; Inhibition Rate (β-hexosaminidase release) (RBL-2H3 cells [4]; 5 μg/mL): 33.7 ± 6.9%; Inhibition Rate (β-hexosaminidase release) (RBL-2H3 cells [4]; 12.5 μg/mL): 50.7 ± 3.2 %; Inhibition Rate (β-hexosaminidase release) (RBL-2H3 cells [4]; 25 μg/mL): 54.4 ± 4.9 %; IC50 (RBL-2H3 cells [4]; IgE-stimulated RBL-2H3 cells, read-out: IC50 (β-hexosaminidase release)): 14.2 µM; Inhibition rate (100% − melanin synthesis) (B16 melanoma cells [5]; 2.5 μg/ml): 1.0 ± 5.4%; Inhibition rate (100% − melanin synthesis) (B16 melanoma cells [5]; 5 μg/ml): 0.0 ± 5.3%; Inhibition rate (100% − melanin synthesis) (B16 melanoma cells [5]; 20 μg/ml): 7.8± 0.9%; IC50 melanin (B16 melanoma cells [5]; B16 melanoma cells): > 20.0 µg/mL; IC50 (B16 melanoma cells [5]; B16 melanoma cells, read-out: IC50 (melanin synthesis)): > 42.3 µM; Inhibition Rate (P. acnes growth) (Propionibacterium acnes; concentration 100 μg/mL): – (no inhibition) |
